Laboratory results: article PMC12338828, “Evaluation of organotin (IV) dithiocarbamate compounds as potential anti-leukemia agents towards CCRF-CEM (CCL-119) cell line: Cytotoxic, apoptotic, cell cycle and genotoxic study” (PLOS One, 2025)
Several values for one entry are separate records, joined by “and”; a condition that tells them apart may be missing. Equal values may be shown once. Read-outs that look alike come from different tables or passages of the source.

Tests used:
WIL2-NS cells = test system: WIL2-NS cells; design: method as in Rasli et al. (2023); conditions: non-cancerous cells; 24 hours of exposure; graph referred to earlier paper; ref Rasli et al. (2023); cited from earlier work
CCL-119 cells [1] = experiment: Cell cycle analysis (PI/RNase staining); type: cell-based; conditions: 24 hours at IC50; single replicates n1-n3
Protocol: The cells were cultured and seeded in a 6-well plate at 1 x 10^6 cells/mL. VCR was used as a positive control, and untreated cells were used as a negative control in this assay. The concentration of the compounds and VCR was followed by IC50 values that were taken from the MTT assay.
After 24 hours of incubation, all cells in the plate were transferred to the Eppendorf tube and centrifuged for 5 minutes at 4°C at 1500 rpm. After centrifuging, the supernatant was removed, and cells were washed with 500 µL cold PBS three times. The pellet was fixed by using 70% ethanol overnight at −20°C. Next, the samples were stained with 500 µL of PI/RNase staining buffer and incubated for 15 minutes. The samples were then transferred into Falcon tubes. The data was recorded using a flow cytometer and analyzed using ModFit LT software.

CCL-119 cells [2] = experiment: Mode of cell death, Annexin V-FITC/PI staining (flow cytometry); type: cell-based; conditions: for Early Apoptosis (Q4) / Late Apoptosis (Q2) / Necrosis (Q1) / Viable (Q3): 24 hours at IC50, single replicates n1-n3; for cell death through apoptosis (population of cells): early + late apoptosis
Protocol: (§1) The mode of cell death can be observed through the Annexin V-FITC/PI staining (BD, USA). The result of this test is either apoptosis or necrosis. […] VCR was used as a positive control, while cells without any treatment were used as a negative control. Then, the plate was incubated for 24 hours. After the incubation, the cell suspension in each well was collected into different Eppendorf tubes. The tubes were then centrifuged for 5 minutes at 1500 rpm at 4°C. After the centrifuge, the supernatant in the tubes was removed, and the cell pellets were washed twice with cold PBS. Then, centrifuge the tubes again and remove the supernatant. Next, 100 µL of Annexin V binding buffer was resuspended in each tube, and 5 µL Annexin V-FITC was pipetted into the tube to stain the cells for 15 minutes at room temperature, dark. After that, 5 µL of propidium iodide was piped into the tube for 5 minutes. The staining process is done in dark conditions. Lastly, the sample was transferred into the Falcon tube, and each tube was resuspended in 400 µL of Annexin V binding buffer. The sample was analyzed using a flow cytometer (BD FACS Canto II) within one hour.

CCL-119 cells [3] = experiment: Alkaline comet assay; type: cell-based
Protocol: VCR was used as a positive control, and untreated cells were used as a negative control in this assay. The cells were incubated for 1 hour. After incubation, cells in each well were transferred to the Eppendorf tube to centrifuge for 5 minutes at 4°C by using a refrigerated microcentrifuge. The supernatant was removed, and the samples were washed with 1 mL of cold PBS. This process was repeated 3 times. After completion of the process, the supernatant was removed, and the pellet was left for a while on top of the ice while preparing the slide.
About 140 µL of normal melting agar (NMA) is pipetted on top of the fully frosted slide, and a cover slip is put on the agar for 5 minutes or until the agar fully solidifies. After that, the cover slip was removed, and 80 µL of low melting agar (LMA) was added to an Eppendorf tube containing the pellet of cells. The suspension was then transferred into a frosted slide with NMA agar. The cover slip was then put back on top of the frosted slide for 10 minutes or until dry. Next, the slide was transferred into a Coplin jar that contained lysis buffer solution and Triton X-100. The slides were then incubated at 4°C overnight. The slides were arranged on an electrophoresis tank filled with electrophoresis buffer for 20 minutes. Electrophoresis is done for another 20 minutes at 25 V with 300 mA. The slides were washed with a neutralization buffer solution 3 times at a 5-minute time interval. Finally, 30 µL of ethidium bromide (50 µg/mL) was added, and the slide was observed by using fluorescence microscopy (OLYMPUS BX51TR). CometScore software is used to analyze the DNA damage of the cells. The comet assay was performed under alkaline conditions (pH > 13) to detect both single- and double-strand DNA breaks.

CCL-119 cells [4] = experiment: MTT cytotoxicity assay; conditions: for cell viability at 0.31 µM / cell viability at 0.63 µM / cell viability at 1.25 µM / cell viability at 2.50 µM / cell viability at 5.00 µM / Selectivity Index (SI): 24 hours; for cell viability at 0.31 µM / cell viability at 0.63 µM / cell viability at 1.25 µM / cell viability at 2.50 µM / cell viability at 5.00 µM: single replicates n1-n3, untreated = 100.00; for cell viability at 2.50 µM: 2.5 µM; for Selectivity Index (SI): IC50 WIL2-NS / IC50 CCL-119; for IC50: read-out: IC50 (µM) CCL-119
Protocol: (§2) The T-acute lymphoblastic leukemia cell line, CCRF-CEM (CCL-119™), and a non-cancerous cell, WIL2-NS (CRL-8155™), were purchased from the American Type Culture Collection (ATCC). Both are suspension types of cells and were cultured in Roswell Park Memorial Institute Medium 1640 (RPMI-1640) (Sigma-Aldrich), supplemented with 10% Fetal Bovine Serum (FBS) (Capricorn Scientific) and 1% penicillin-streptomycin (Nacalai Tesque) to obtain the complete growth medium and were incubated at 37 °C with a 5% CO2 incubator. Both suspension cells are used for tests when the cells’ passage becomes passage 3–10 (maximum).
(§3) All stock solutions of the organotin (IV) dithiocarbamate compounds were prepared at 10 mM and dissolved in dimethyl sulphoxide (DMSO) (ChemAR®). The stock solutions were stored at 4°C; fresh dilutions were made by adding the RPMI-1640 medium before the experiment. The dilution is carried out using the serial dilution method to obtain the desired concentrations, which are 5 µM, 2.5 µM, 1.25 µM, 0.63 µM, 0.32 µM, and 0.16 µM in this study. Vincristine (VCR) is used as a positive control in this study.
(§4) Both CCL-119 and WIL2-NS cells were seeded in a 96-well plate at a final concentration of 5 x 10^5 cells/well and treated with 5 µM, 2.5 µM, 1.25 µM, 0.63 µM, 0.32 µM, and 0.16 µM of organotin (IV) dithiocarbamate compound for 24 hours at 37°C with 5% CO2. VCR was used as a positive control in this study, while cells without treatment were used as a negative control. After 24 hours of exposure, 20 µL of MTT (Merck) salt solution was added into each well and incubated for another 4 hours. The plate was wrapped with aluminium foil as MTT salt is light sensitive. After 4 hours, the purple crystal formazan was formed. All the medium was removed carefully from each well, and 200 µL DMSO was added to each well to dissolve the purple formazan crystal. Then, the plates were incubated for an additional 15 minutes. The results were analyzed and recorded using an ELISA microplate reader at 570 nm. The data was then plotted into a graph, and IC50 values were determined.
(§5) The selectivity index (SI) is determined by dividing the cytotoxic activity (IC50 value) of each compound on a non-cancerous cell line (WIL2-NS) by the leukemia cell line (CCL-119). […] WIL2- NS cell lines were selected as the comparator because it is a non-cancerous human B lymphoblast cell line, which is like CCL-119 (T-lymphoblastic leukemia), derived from lymphocytes. This choice ensures that comparisons are made between biologically similar cell types, minimizing variability that could arise from differences in tissue origin or lineage.

[5] = Mode of cell death, Annexin V-FITC/PI staining (flow cytometry); type: cell-based; conditions: human, Viable (Q3)
Protocol: as §1

in vitro = conditions: human
Protocol: as §2, §3, §4, §5

Jurkat E6.1 cells = test system: Jurkat E6.1 cells; design: method as in Awang et al. (2015) [26]; conditions: ref Awang et al. (2015) [26]; cited from earlier work
[6] = 1 hour of exposure, single replicates n1-n3
[7] = 24 hours of exposure, mean ± SEM, n = 3

Row | SMILES | IC50 (WIL2-NS cells) [µM] | cells in G0/G1 phase (CCL-119 cells [1]) | cells in G2/M phase (CCL-119 cells [1]) | cells in S phase (CCL-119 cells [1]) | Early Apoptosis (Q4) (CCL-119 cells [2]) | Late Apoptosis (Q2) (CCL-119 cells [2]) | Necrosis (Q1) (CCL-119 cells [2]) | Viable (Q3) (CCL-119 cells [2]) | Tail moment (CCL-119 cells [3]; 1 hour of exposure, mean ± SEM) [A.U] | percentage of DNA intensity in the tail (CCL-119 cells [3]; 1 hour of exposure, mean ± SEM) [%] | % DNA intensity (CCL-119 cells [3]; [6]) | Tail moment (CCL-119 cells [3]; [6]) | cell viability at 0.31 µM (CCL-119 cells [4]) | cell viability at 0.63 µM (CCL-119 cells [4]) | cell viability at 1.25 µM (CCL-119 cells [4]) | cell viability at 2.50 µM (CCL-119 cells [4]) | cell viability at 5.00 µM (CCL-119 cells [4]) | Selectivity Index (SI) (CCL-119 cells [4]) | cell death through apoptosis (population of cells) (CCL-119 cells [2]; 24 hours, treated at IC50) [%] | IC50 (CCL-119 cells [4]; [7]) [µM] | further results
1 | CCN(CC)C(=S)[S][Sn]([c]1ccccc1)([c]1ccccc1)[c]1ccccc1 [ODTC 5, triphenyltin (IV) diethyl dithiocarbamate] | 0.79 ± 0.05 | 64.02% and 86.49% and 54.56% | 30.58% and 13.51% and 45.44% | 5.4% and 0% | 10.9% and 47.3% and 16.6% | 6.4% and 17.1% and 18.5% | 12.9% and 0.1% | 69.8% and 35.6% and 64.8% | 12.61 ± 1.56 | 11.59 ± 1.18 | 13.8528% and 11.0312% and 9.872% | 15.0222 A.U and 13.1179 A.U and 9.676 A.U | 37.70% and 42.75% and 36.81% | 39.38% and 30.79% and 37.35% | 35.19% and 39.06% and 29.63% | 37.67% and 28.99% and 27.66% | 16.16% and 17.11% and 21.93% | 4.16 | – | – | population of cells undergoing necrosis (CCL-119 cells [2]; 24 hours, treated at IC50): 4.37%
2 | CC(C)N(C(=S)[S][Sn]([CH3])([CH3])[S]C(=S)N(C(C)C)C(C)C)C(C)C [ODTC 6, dimethyltin (IV) diisopropyl dithiocarbamate] | 5 ± 1.04 | 65.00% and 60.00% and 55.00% | 4.80% and 5.00% and 2.80% | 30.20% and 35.00% and 42.20% | 44.7% and 48.9% and 45.6% | 33.5% and 23.8% and 26.2% | 0.1% and 0.3% and 0.2% | 21.6% and 27% and 28.1% | – | – | 4.005% and 4.8% and 5.931% | 3.51 A.U and 4.102 A.U and 5.014 A.U | 58.47% and 122.11% and 74.00% | 54.60% and 100.55% and 42.63% | 68.83% and 73.56% and 74.68% | 43.76% and 67.94% and 56.55% | 56.86% and 66.74% and 57.64% | – | 74.2 | 3.1 ± 1.08 | DNA damage / genotoxic effect (in words) (CCL-119 cells [3]): no DNA damage
3 | CCN(CC)C(=S)[S][Sn]([CH3])([CH3])[S]C(=S)N(CC)CC [ODTC 7, dimethyltin (IV) diethyl dithiocarbamate] | 0.5 ± 0.34 | 70.20% and 67.80% and 60.00% | 1.80% and 0.20% and 1.00% | 28.00% and 32.00% and 39.00% | 24.7% and 24.4% and 29.9% | 70.3% and 71.5% and 65.3% | 0.7% and 0.4% | 4.4% and 3.7% and 4.2% | – | – | 6.521% and 7.002% and 7.823% | 5.822 A.U and 6.511 A.U and 7.52 A.U | 53.85% and 25.00% and 27.93% | 22.79% and 38.51% and 14.94% | 25.40% and 25.00% and 5.26% | 11.18% and 20.05% and 9.03% | 4.79% and 42.34% and 14.76% | – | 95.6 | 0.5 ± 0.3 | DNA damage / genotoxic effect (in words) (CCL-119 cells [3]; 1 hour of exposure, damage when TM > 5 A.U. and TI > 10%): no DNA damage
4 | CC[C@]1(O)C[C@H]2CN(CCc3c([nH]c4ccccc34)[C@@](C(=O)OC)(c3cc4c(cc3OC)N(C=O)[C@H]3[C@@](O)(C(=O)OC)[C@H](OC(C)=O)[C@]5(CC)C=CCN6CC[C@]43[C@@H]65)C2)C1 [VCR, Vincristine, reference compound] | 2.89 ± 0.03 | 36.70% and 30.32% and 29.02% | 5.35% and 8.00% and 3.69% | 57.95% and 61.68% and 67.28% | 39.2% and 38.7% and 37.4% | 19% and 17.2% and 17.9% | 0.45% and 0.54% and 0.51% | – | 4.17 ± 0.74 | 8.48 ± 1.09 | 6.493% and 8.677% and 10.2647% | 2.837 A.U and 4.286 A.U and 5.38 A.U | – | – | – | – | – | below 2 | 56.46 | – | viability at 24 h [5]: 44.4%; IC50 (CCL-119 cells [4]; 24 h): 1.82 ± 1.53 µM; Selectivity Index (SI) (CCL-119 cells [4]; listed as Vincristine (VCR)): 1.59; viability at 24 h, 0.63 µM (in vitro; cell viability at 0.63 µM): 50.6%; viability at 24 h, 1.25 µM (in vitro; cell viability at 1.25 µM): 46.3%; viability at 24 h, 5 µM (in vitro; cell viability at 5.00 µM): 41.6%
5 | CCCCN(C(=S)[S][Sn]([c]1ccccc1)([c]1ccccc1)[c]1ccccc1)c1ccccc1 [triphenyltin (IV) butylphenyl dithiocarbamate] | – | – | – | – | – | – | – | – | – | – | – | – | – | – | – | – | – | – | – | – | mode of cell death in Jurkat E6.1 cells (Jurkat E6.1 cells): predominant induction of early-phase apoptotic cell death
